This is an account of results in patent US20250126968A1, “Light-Emitting Device” (Semiconductor Energy Laboratory Co., Ltd., priority 2023, published 2025).

A short description of the data set: Solubility test of PrdP2Phen by LC-MS analysis. The data set is classed as physicochemical. Conditions: 1 mg in 1 mL of water, ultrasonic waves 5 minutes, membrane-filtered, filtrate analysed by LC-MS; one atmosphere, room temperature. How it is done: Next, a solubility test of PrdP2Phen was performed. Note that the solubility test was conducted at a pressure of one atmosphere at room temperature (RT).
In the LC-MS analysis, liquid chromatography (LC) separation was carried out with ACQUITY UPLC (Waters Corporation), and MS analysis (mass spectrometry) was carried out with Xevo G2 Tof MS (Waters Corporation). Acquity UPLC BEH C8 (2.1×100 mm, 1.7 μm) was used as a column for the LC separation. Acetonitrile was used for Mobile Phase A and a 0.1% aqueous solution of formic acid was used for Mobile Phase B. The injection amount of the sample was 5.0 μL. Note that in the analysis, the wavelength of a photodiode array detector was set to 263 nm±1 nm.
In a 5-mL sample bottle, 1 mg of PrdP2Phen was put and 1 mL of water was added thereto. This mixture was irradiated with ultrasonic waves for 5 minutes. This mixture was filtered through a membrane filter to remove the solid, and the resulting filtrate was diluted by five times with acetonitrile. The obtained solution was subjected to LC-MS analysis.

The structures appear in SMILES notation.

Regarding `c1cc(-c2ccc(N3CCCC3)cc2)c2ccc3c(-c4ccc(N5CCCC5)cc4)ccnc3c2n1` [PrdP2Phen, 4,7-bis[4-(1-pyrrolidinyl)phenyl]-1,10-phenanthroline], the solubility in water result is “extremely low solubility in water”.
